{"source": "patent US20240002397A1", "about": "“3-AMINO PYRROLIDINE AND PIPERIDINE MACROCYCLIC OREXIN RECEPTOR AGONISTS” (Merck Sharp & Dohme LLC, priority 2020, published 2024)"}
{"target": "T1, human OX2R (Homo sapiens, UniProt O43614)", "T1 sequence (O43614 1-444)": "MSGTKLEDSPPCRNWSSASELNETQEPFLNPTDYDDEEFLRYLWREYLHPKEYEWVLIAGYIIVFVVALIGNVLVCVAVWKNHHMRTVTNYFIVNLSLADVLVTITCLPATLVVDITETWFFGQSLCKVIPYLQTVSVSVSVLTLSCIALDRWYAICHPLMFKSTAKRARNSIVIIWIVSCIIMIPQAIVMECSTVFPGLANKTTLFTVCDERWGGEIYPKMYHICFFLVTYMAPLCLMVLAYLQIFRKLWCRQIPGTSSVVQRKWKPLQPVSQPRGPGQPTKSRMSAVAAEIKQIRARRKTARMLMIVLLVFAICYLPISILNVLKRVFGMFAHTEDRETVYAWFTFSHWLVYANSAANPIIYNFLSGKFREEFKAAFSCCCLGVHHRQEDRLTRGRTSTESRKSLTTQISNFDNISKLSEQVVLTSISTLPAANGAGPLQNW", "test": "IPOne (IP-1) orexin receptor agonist assay in CHO cells expressing human OX2R", "details": "CHO, hOX2R IP-One; percentage of mean max effect of a reference compound at 1 uM with 100% activity", "units": {"Emax": "%"}, "experimental": "In atypical experiment, the OX1 and OX2 receptor agonist activity is determined in accordance with the following general experimental method. Chinese hamster ovary (CHO) cells expressing human OX1R and/or the human OX2R were grown in Iscove's modified DMEM containing glutaMAX™, 1% G418, 100 U/mL penicillin, 100 μg/mL streptomycin and 10% heat-inactivated qualified fetal bovine serum (FBS). […] During this incubation, IP-one detection reagents were prepared (38:1:1 lysis buffer:D2:AB-cryptate reagents).\nFor each compound, data were fit to a four parameter logistic fit (ActivityBase software) and the EC50 was reported as the inflection point of the resulting curve."}
{"smiles": "C[C@@H]1C[C@H](NS(C)(=O)=O)[C@@H]2COC3CCC(CC3)c3ccccc3/C=C/OC(=O)N12", "note": "[Example 2, N-((2^1R,2^4R,5^2R,5^3S,5^5R,E)-5^5-methyl-6-oxo-3,7-dioxa-5(2,1)-pyrrolidina-1(1,2)-benzena-2(1,4)-cyclohexanacyclonaphan-8-en-5^3-yl)methanesulfonamide]", "Emax": 102}
{"smiles": "COC[C@@H]1C[C@H](NS(C)(=O)=O)[C@@H]2COC3CCC(CC3)c3cccc(F)c3/C=C/OC(=O)N12", "note": "[Example 3, N-((2^1R,2^4R,5^2R,5^3S,5^5S,E)-1^3-fluoro-5^5-(methoxymethyl)-6-oxo-3,7-dioxa-5(2,1)-pyrrolidina-1(1,2)-benzena-2(1,4)-cyclohexanacyclonaphan-8-en-5^3-yl)methanesulfonamide]", "Emax": 99.5}
{"smiles": "C[C@@H]1C[C@H](NS(=O)(=O)N(C)C)[C@@H]2COC3CCC(CC3)c3ccccc3CCOC(=O)N12", "note": "[Example 4, N′-((2′R,2^4R,5^2R,5^3S,5^5R)-5^5-methyl-6-oxo-3,7-dioxa-5(2,1)-pyrrolidina-1(1,2)-benzena-2(1,4)-cyclohexanacyclononaphane-5^3-yl)-N,N-dimethyl-sulfamide]", "Emax": 101}
{"smiles": "C[C@@H]1C[C@H](NS(C)(=O)=O)[C@@H]2COC3CCC(CC3)c3ccccc3CCOC(=O)N12", "note": "[Example 5, N-((2^1R,2^4R,5^2R,5^3S, 5^5R)-5^5-methyl-6-oxo-3,7-dioxa-5(2,1)-pyrrolidina-1(1,2)-benzena-2(1,4)-cyclo-hexanacyclonaphane-5^3-yl)methane sulfonamide]", "Emax": 100}
{"smiles": "COC[C@@H]1C[C@H](NS(C)(=O)=O)[C@@H]2COC3CCC(CC3)c3cccc(F)c3CCOC(=O)N12", "note": "[Example 6, N-((2^1R,2^4R,5^2R,5^3S, 5^5S)-1^3-fluoro-5^5-(methoxymethyl)-6-oxo-3,7-dioxa-5(2,1)-pyrrolidina-1(1,2)-benzena-2(1,4)-cyclo-hexanacyclonaphane-5^3-yl)methane sulfonamide]", "Emax": 100}
{"smiles": "CN(C)S(=O)(=O)N[C@H]1CCN2C(=O)CCCCOc3cccc(c3)[C@H]3CC[C@H](CC3)OC[C@@H]12", "note": "[Example 7, N′-((2^1S,2^4S,5^2R,5^3S)-6-oxo-3,11-dioxa-5(2,1)-pyrrolidina-1(1,3)-benzena-2(1,4)-cyclohexanacycloundecaphane-5^3-yl)-N,N-dimethyl-sulfamide]", "Emax": 104}
{"smiles": "C[C@@H]1C[C@H](NS(=O)(=O)N(C)C)[C@@H]2COC3CCC(CC3)c3cccc(c3)OCCCCCC(=O)N12", "note": "[Example 8, N′-((2^1S,2^4S,5^2R,5^3S,5^5R)-5^5-methyl-6-oxo-3,12-dioxa-5(2,1)-pyrrolidina-1(1,3)-benzena-2(1,4)-cyclohexanacyclododecaphane-5^3-yl)-N,N-dimethyl-sulfamide]", "Emax": 100}
{"smiles": "C[C@@H]1C[C@H](NS(=O)(=O)N(C)C)[C@@H]2COC3CCC(CC3)c3cccc(c3)OCCC=CC(=O)N12", "note": "[Example 9, N′-((2^1S,2^4S,5^2R,5^3S, 5^5R)-5^5-methyl-6-oxo-3,11-dioxa-5(2,1)-pyrrolidina-1(1,3)-benzena-2(1,4)-cyclohexanacycloundecaphan-7-en-5^3-yl)-N,N-dimethyl-sulfamide]", "Emax": 100}
{"smiles": "C[C@@H]1C[C@H](NS(=O)(=O)N(C)C)[C@@H]2COC3CCC(CC3)c3cccc(c3)OCCCCC(=O)N12", "note": "[Example 10, N′-((2^1S,2^4S,5^2R,5^3S, 5^5R)-5^5-methyl-6-oxo-3,11-dioxa-5(2,1)-pyrrolidina-1(1,3)-benzena-2(1,4)-cyclohexanacycloundecaphane-5^3-yl)-N,N-dimethyl-sulfamide]", "Emax": 101}
{"smiles": "C[C@@H]1C[C@H](NS(=O)(=O)N(C)C)[C@@H]2COC3CCC(CC3)c3cccc(c3)OCCCCOC(=O)N12", "note": "[Example 11, N′-((2^1S,2^4S,5^2R,5^3S,5^5R)-5^5-methyl-6-oxo-3,7,12-trioxa-5(2,1)-pyrrolidina-1(1,3)-benzena-2(1,4)-cyclohexanacyclododecaphane-5^3-yl)-N,N-dimethyl-sulfamide]", "Emax": 101}
{"smiles": "C[C@@H]1C[C@H](NS(=O)(=O)N(C)C)[C@@H]2CO[C@H]3CC[C@H](CC3)c3cccc(c3)CCCCCC(=O)N12", "note": "[Example 12, N′-((2^1S,2^4S,5^2R,5^3S,5^5R)-5^5-methyl-6-oxo-3-oxa-5(2,1)-pyrrolidina-1(1,3)-benzena-2(1,4)cyclohexanacycloundecaphane-5^3-yl)-N,N-dimethyl-sulfamide]", "Emax": 101}
{"smiles": "C[C@@H]1C[C@H](NS(=O)(=O)N(C)C)C2COC3CCC(CC3)c3cccc(c3)OCCCC(=O)N21", "note": "(stereo partly shown) [Example 14, N′-((2^1S,2^4S,5^2R, 5^3S,5^5R)-5^5-methyl-6-oxo-3,10-dioxa-5(2,1)-pyrrolidina-1(1,3)-benzena-2(1,4)-cyclohexana-cyclodecaphane-5^3-yl)-N,N-methyl-sulfamide]", "Emax": 100}
{"smiles": "CN(C)S(=O)(=O)N[C@H]1CCN2C(=O)OCCCOc3cccc(c3)[C@H]3CC[C@H](CC3)OC[C@@H]12", "note": "[Example 16, N′-((2^1S,2^4S, 5^2R,5^3S)-6-oxo-3,7,11-trioxa-5(2,1)-pyrrolidina-1(1,3)-benzena-2(1,4)-cyclohexana-cyclounde-caphane-5^3-yl)-N,N-dimethyl-sulfamide]", "Emax": 99.1}
{"smiles": "C[C@@H]1C[C@H](NS(C)(=O)=O)C2COC3CCC(CC3)c3cccc(c3)OCCOC(=O)N21", "note": "(stereo partly shown) [Example 17, N-((2^1S,2^4S, 5^2R,5^3S,5^5R)-5^5-methyl-6-oxo-3,7,10-trioxa-5(2,1)-pyrrolidina-1(1,3)-benzena-2(1,4)-cyclohexana-cyclodecaphane-5^3-yl) methanesulfonamide]", "Emax": 100}
{"smiles": "C[C@@H]1C[C@H](NS(C)(=O)=O)C2COC3CCC(CC3)c3cccc(c3)OCCCOC(=O)N21", "note": "(stereo partly shown) [Example 18, N-((2^1S,2^4S, 5^2R,5^3S,5^5R)-5^5-methyl-6-oxo-3,7,11-trioxa-5(2,1)-pyrrolidina-1(1,3)-benzena-2(1,4)-cyclohexana-cyclounde-caphane-5^3-yl) methanesulfonamide]", "Emax": 100}
{"smiles": "C[C@@H]1C[C@H](NS(C)(=O)=O)C2COC3CCC(CC3)c3cccc(c3)OCCCCC(=O)N21", "note": "(stereo partly shown) [Example 19, N-((2^1S,2^4S, 5^2R,5^3S,5^5R)-5^5-methyl-6-oxo-3,11-dioxa-5(2,1)-pyrrolidina-1(1,3)-benzena-2(1,4)-cyclohexana-cyclounde-caphane-5^3-yl) methanesulfonamide]", "Emax": 101}
{"smiles": "C[C@@H]1C[C@H](NS(C)(=O)=O)C2COC3CCC(CC3)c3cccc(c3)OCCCC(=O)N21", "note": "(stereo partly shown) [Example 20, N-((2^1S,2^4S, 5^2R,5^3S,5^5R)-5^5-methyl-6-oxo-3,10-dioxa-5(2,1)-pyrrolidina-1(1,3)-benzena-2(1,4)-cyclohexana-cyclodecaphane-5^3-yl) methanesulfonamide]", "Emax": 101}
{"target": "T1, human OX2R", "test": "IPOne (IP-1) orexin receptor agonist assay in CHO cells expressing human OX2R", "details": "hOX2R IP-One; percentage of mean max effect of a reference compound at 1 uM with 100% activity", "units": {"Emax (%)": "%"}}
{"smiles": "CS(=O)(=O)NC1CCCN2C(=O)CCCOc3cccc(c3)C3CCC(C3)OCC12", "note": "(single isomer, unassigned) [Example 34, N-((2^1S,2^3R,5^2R,5^3S)-6-oxo-3,10-dioxa-5(2,1)-piperidina-1(1,3)-benzena-2(1,3)-cyclopentanacyclodecaphane-5^3-yl)methanesulfonamide]", "Emax (%)": 5.0}
{"smiles": "CS(=O)(=O)NC1CCCN2C(=O)CCCOc3cccc(c3)C3CCC(C3)OCC12", "note": "(single isomer, unassigned) [Example 35, N-((2^1S,2^3R,5^2R,5^3S)-6-oxo-3,10-dioxa-5(2,1)-piperidina-1(1,3)-benzena-2(1,3)-cyclopentanacyclodecaphane-5^3-yl)methanesulfonamide]", "Emax (%)": 100.1}
{"smiles": "CS(=O)(=O)NC1CCCN2C(=O)CCCOc3cccc(c3)C3CCC(C3)OCC12", "note": "(single isomer, unassigned) [Example 36, N-((2^1S,2^3R,5^2R,5^3S)-6-oxo-3,10-dioxa-5(2,1)-piperidina-1(1,3)-benzena-2(1,3)-cyclopentanacyclodecaphane-5^3-yl)methanesulfonamide]", "Emax (%)": 103.3}
{"smiles": "CN(C)S(=O)(=O)NC1CCCN2C(=O)OCCc3ccccc3C3CCC(CC3)OCC12", "note": "(single isomer, unassigned) [Example 38, N′-((2^1S,2^4S,5^2R,5^3S)-6-oxo-3,7-dioxa-5(2,1)-piperidina-1(1,2)-benzena-2(1,4)-cyclohexanacyclononaphane-5^3-yl)-N,N-dimethyl-sulfamide]", "Emax (%)": 100.8}
{"smiles": "CN(C)S(=O)(=O)NC1CCCN2C(=O)OCCc3ccccc3C3CCC(CC3)OCC12", "note": "(single isomer, unassigned) [Example 39, N′-((2^1S,2^4S,5^2R,5^3S)-6-oxo-3,7-dioxa-5(2,1)-piperidina-1(1,2)-benzena-2(1,4)-cyclohexanacyclononaphane-5^3-yl)-N,N-dimethyl-sulfamide]", "Emax (%)": 4.4}
{"smiles": "CN(C)S(=O)(=O)NC1CCCN2C(=O)OCCc3ccccc3C3CCC(CC3)OCC12", "note": "(single isomer, unassigned) [Example 40, N′-((2^1S,2^4S,5^2R,5^3S)-6-oxo-3,7-dioxa-5(2,1)-piperidina-1(1,2)-benzena-2(1,4)-cyclohexanacyclononaphane-5^3-yl)-N,N-dimethyl-sulfamide]", "Emax (%)": 71.6}
{"smiles": "CC1CC(NS(=O)(=O)N(C)C)C2COC3CCC(CC3)c3cccc(c3)OCCCOC(=O)N12", "note": "(stereo not shown) [Example 13]", "Emax (%)": 99.3}
{"smiles": "CN(C)S(=O)(=O)NC1CCN2C(=O)OCCCCc3cccc(c3)C3CCC(CC3)OCC12", "note": "(stereo not shown) [Example 21, N′-((2^1S,2^4S,5^2R,5^3S)-6-oxo-3,7-dioxa-5(2,1)-pyrrolidina-1(1,3)-benzena-2(1,4)-cyclohexanacycloundecaphane-5^3-yl)-N,N-dimethyl-sulfamide]", "Emax (%)": 100.5}
